# US8012979B2, “Compounds and their uses 707” (AstraZeneca AB, priority 2007, dated 2011)
# Structures can show the parent of a compound that is named as a salt.
# Biological target: T1, human active recombinant p38α-6His tagged (Homo sapiens, UniProt Q16539)
# T1 construct: 6His
# Test: p38 Alpha Enzyme Assay (AlphaScreen, biotinylated-ATF2 substrate)
# Assay type: biochemical
# Details: pre-incubated 4 hours at 37° C., reaction initiated with ATP; 0.5 nM enzyme; read-out: p38 pIC50 (converted)
# Experimental: The ability of the compounds of formula (I) to inhibit p38 kinase may be determined using the following biological assay:
# Enzyme assays were performed in polypropylene 96 well plates. The following solutions were added to each well; 10 μL of compound dilutions in assay buffer (20 mM HEPES pH 7.4, containing 20 mM magnesium acetate, 0.005% (w/v) Tween-20, 10 mM DTT) containing 1% (v/v) DMSO or assay buffer containing 1% (v/v) DMSO alone, 70 μL of assay buffer containing 36 nM substrate (biotinylated-ATF2) and 10 μL of an appropriate dilution of human active recombinant p38α-6His tagged. Depending on batch of p38, an appropriate dilution was typically a 5 nM solution to give a final enzyme concentration of 0.5 nM. At this stage, background control wells also received 50 μL of AlphaScreen quench buffer (10 mM HEPES pH 7.4 containing 100 mM EDTA, 0.2% (w/v) bovine serum albumin). The plate was covered, pre-incubated for 4 hours at 37° C. and the enzyme reaction initiated by addition of 10 μL 1 mM ATP. After incubation for a further 45 minutes at 37° C., the reaction was stopped by addition of 50 μL quench reagent and 50 μL of the quenched reaction mixture transferred to an opaque, white 96-well plate. Detection reagent, 25 μL of 10 mM HEPES pH 7.4 containing 100 mM EDTA, 0.2% (w/v) bovine serum albumin, 0.3 nM anti phosphoATF2 antibody and 25 μg/mL of ‘AlphaScreen protein A acceptor and donor beads’ (PerkinElmer Inc.), was added to all wells in a darkened room, the plate sealed and left in the dark for at least 5 hours before AlphaScreen readings were taken using a Perkin Elmer EnVision reader. Total, uninhibited activity was determined from assays performed in each assay plate. The mean control in the absence of p38 activity was subtracted from each well. Data were expressed as percent inhibition of total activity using equation 1. Percent Inhibition=100*(1−Test/Control) Eq.1 Where . . . . • Test=p38 kinase activity in the presence of compound • Control=p38 kinase activity in the absence of compound.
# pIC50 is defined as the logarithm of the reciprocal of the concentration of compound required for 50% reduction in total p38 kinase activity.
# T1 sequence (Q16539 whole entry): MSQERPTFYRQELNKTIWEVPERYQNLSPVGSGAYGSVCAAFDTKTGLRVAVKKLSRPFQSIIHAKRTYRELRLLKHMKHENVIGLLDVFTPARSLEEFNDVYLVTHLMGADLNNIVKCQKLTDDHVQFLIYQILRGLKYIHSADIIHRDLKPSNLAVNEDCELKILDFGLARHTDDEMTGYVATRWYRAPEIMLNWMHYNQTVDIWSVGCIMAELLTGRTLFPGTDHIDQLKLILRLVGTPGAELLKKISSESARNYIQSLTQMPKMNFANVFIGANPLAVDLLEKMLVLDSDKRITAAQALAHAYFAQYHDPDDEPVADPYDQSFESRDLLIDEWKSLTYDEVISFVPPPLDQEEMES
row,Compound,IC50 [nM]
1,"Cc1ccc(C(=O)NC2CC2)cc1-c1ccc2c(=O)n(CC3CC3)cc(CN3CCCN(C(C)C)CC3)c2c1 [Example 73, N-Cyclopropyl-3-(2-(cyclopropylmethyl)-4-((4-isopropyl-1,4-diazepan-1-yl)methyl)-1-oxo-1,2-dihydroisoquinolin-6-yl)-4-methylbenzamide]",1.26
2,"Cc1ccc(C(=O)NC2CC2)cc1-c1ccc2c(=O)n(CC3CC3)ccc2c1 [Example 122, N-Cyclopropyl-3-(2-cyclopropylmethyl-1-oxo-1,2-dihydro-isoquinolin-6-yl)-4-methylbenzamide]",1.58
3,"Cc1ccc(C(=O)NC2CC2)cc1-c1ccc2c(=O)n(CC3CC3)cc(C(=O)N3CCC(N)CC3)c2c1 [Example 42, 3-(4-(4-Aminopiperidine-1-carbonyl)-2-(cyclopropylmethyl)-1-oxo-1,2-dihydroisoquinolin-6-yl)-N-cyclopropyl-4-methylbenzamide]",1.26
4,"Cc1ccc(C(=O)NC2CC2)cc1-c1ccc2c(=O)n(Cc3ccc(C4CCNCC4)cc3)c(C)cc2c1 [Example 98, N-Cyclopropyl-4-methyl-3-(3-methyl-1-oxo-2-(4-(piperidin-4-yl)benzyl)-1,2-dihydroisoquinolin-6-yl)benzamide]",2.51
5,"Cc1ccc(C(=O)NC2CC2)cc1-c1ccc2c(=O)n(CC3CC3)cc(C(=O)NCCN(C)C)c2c1 [Example 40, 6-(5-(Cyclopropylcarbamoyl)-2-methylphenyl)-2-(cyclopropylmethyl)-N-(2-(dimethylamino)ethyl)-1-oxo-1,2-dihydroisoquinoline-4-carboxamide]",3.98
6,"Cc1ccc(C(=O)NC2CC2)cc1-c1ccc2c(=O)n(Cc3ccc(C4=CCNCC4)cc3)ccc2c1 [Example 7, N-Cyclopropyl-4-methyl-3-[1-oxo-2-{4-(1,2,3,6-tetrahydro-pyridin-4-yl)-benzyl}-1,2-dihydro-isoquinolin-6-yl]-benzamide, hydrochloride]",0.398
7,"Cc1ccc(C(=O)NC2CC2)cc1-c1ccc2c(=O)n(CC3CC3)cc(CNCCCN(C)C)c2c1 [Example 71, N-Cyclopropyl-3-(2-(cyclopropylmethyl)-4-((3-(dimethylamino)propylamino)methyl)-1-oxo-1,2-dihydroisoquinolin-6-yl)-4-methylbenzamide]",10
8,"Cc1ccc(C(=O)NC2CC2)cc1-c1ccc2c(=O)n(Cc3ccc(C(=O)NS(C)(=O)=O)cc3)cc(CN3CCCN(C)CC3)c2c1 [Example 114, N-Cyclopropyl-4-methyl-3-(4-((4-methyl-1,4-diazepan-1-yl)methyl)-2-(4-(methylsulfonylcarbamoyl)benzyl)-1-oxo-1,2-dihydroisoquinolin-6-yl)benzamide]",0.251
9,"Cc1ccc(C(=O)NC2CC2)cc1-c1ccc2c(=O)n(Cc3ccc(CN4CCN(C)CC4)cc3)ccc2c1 [Example 26, N-Cyclopropyl-4-methyl-3-(2-(4-((4-methylpiperazin-1-yl)methyl)benzyl)-1-oxo-1,2-dihydroisoquinolin-6-yl)benzamide]",3.16
10,"CCN1CCC(CNCc2cn(CC3CC3)c(=O)c3ccc(-c4cc(C(=O)NC5CC5)cc(F)c4C)cc23)CC1 [Example 91, N-Cyclopropyl-3-(2-(cyclopropylmethyl)-4-(((1-ethylpiperidin-4-yl)methylamino)methyl)-1-oxo-1,2-dihydroisoquinolin-6-yl)-5-fluoro-4-methylbenzamide]",7.94
11,"Cc1c(F)cc(C(=O)NC2CC2)cc1-c1ccc2c(=O)n(CC3CC3)cc(CN3CCCNCC3)c2c1 [Example 92, 3-(4-((1,4-Diazepan-1-yl)methyl)-2-(cyclopropylmethyl)-1-oxo-1,2-dihydroisoquinolin-6-yl)-N-cyclopropyl-5-fluoro-4-methylbenzamide]",0.1
12,"CC[C@H]1CN(Cc2cn(CC3CC3)c(=O)c3ccc(-c4cc(C(=O)NC5CC5)cc(F)c4C)cc23)CCN1 [Example 116, (S)—N-Cyclopropyl-3-(2-(cyclopropylmethyl)-4-((3-ethylpiperazin-1-yl)methyl)-1-oxo-1,2-dihydroisoquinolin-6-yl)-5-fluoro-4-methylbenzamide]",0.501
13,"CNCCOc1ccc(Cn2ccc3cc(-c4cc(C(=O)NC5CC5)ccc4C)ccc3c2=O)cc1 [Example 36, N-Cyclopropyl-4-methyl-3-(2-(4-(2-(methylamino)ethoxy)benzyl)-1-oxo-1,2-dihydroisoquinolin-6-yl)benzamide]",0.398
14,"Cc1ccc(C(=O)NC2CC2)cc1-c1ccc2c(=O)n(CC3CC3)cc(CN3CCN(C)CC3)c2c1 [Example 74, N-Cyclopropyl-3-(2-(cyclopropylmethyl)-4-((4-methylpiperazin-1-yl)methyl)-1-oxo-1,2-dihydroisoquinolin-6-yl)-4-methylbenzamide]",0.631
15,"Cc1ccc(C(=O)NC2CC2)cc1-c1ccc2c(=O)n(CC3CC3)cc(C(=O)N3CC[C@H](N)C3)c2c1 [Example 43, (S)-3-(4-(3-Aminopyrrolidine-1-carbonyl)-2-(cyclopropylmethyl)-1-oxo-1,2-dihydroisoquinolin-6-yl)-N-cyclopropyl-4-methylbenzamide]",5.01
16,"Cc1c(F)cc(C(=O)NC2CC2)cc1-c1ccc2c(=O)n(CC3CC3)cc(CN3CCN(CCO)CC3)c2c1 [Example 90, N-Cyclopropyl-3-(2-(cyclopropylmethyl)-4-((4-(2-hydroxyethyl)piperazin-1-yl)methyl)-1-oxo-1,2-dihydroisoquinolin-6-yl)-5-fluoro-4-methylbenzamide]",0.158
17,"COc1ccc(Cn2ccc3cc(-c4cc(C(=O)NC5CC5)ccc4C)ccc3c2=O)cc1 [Example 17, N-Cyclopropyl-3-[2-(4-methoxy-benzyl)-1-oxo-1,2-dihydro-isoquinolin-6-yl]-4-methyl-benzamide]",1
18,"Cc1ccc(C(=O)NC2CC2)cc1-c1ccc2c(=O)n(CC3CC3)cc(CN3CCC(N(C)C)CC3)c2c1 [Example 69, N-Cyclopropyl-3-(2-(cyclopropylmethyl)-4-((4-(dimethylamino)piperidin-1-yl)methyl)-1-oxo-1,2-dihydroisoquinolin-6-yl)-4-methylbenzamide]",0.2
19,"Cc1ccc(C(=O)NC2CC2)cc1-c1ccc2c(=O)n(Cc3ccc(C(=O)NCCN(C)C)cc3)ccc2c1 [Example 19, N-Cyclopropyl-3-(2-(4-(2-(dimethylamino)ethylcarbamoyl)benzyl)-1-oxo-1,2-dihydroisoquinolin-6-yl)-4-methylbenzamide]",1
20,"Cc1ccc(C(=O)NC2CC2)cc1-c1ccc2c(=O)n(Cc3ccc(C4CCNCC4)cc3)ccc2c1 [Example 8, N-Cyclopropyl-4-methyl-3-[1-oxo-2-(4-piperidin-4-yl-benzyl)-1,2-dihydro-isoquinolin-6-yl]-benzamide]",0.501
21,"Cc1ccc(C(=O)NC2CC2)cc1-c1ccc2c(=O)n(Cc3ccccc3)cc(C(=O)N3CC[C@@H](N)C3)c2c1 [Example 53, (R)-3-(4-(3-Aminopyrrolidine-1-carbonyl)-2-benzyl-1-oxo-1,2-dihydroisoquinolin-6-yl)-N-cyclopropyl-4-methylbenzamide]",2
22,"Cc1c(F)cc(C(=O)NC2CC2)cc1-c1ccc2c(=O)n(CC3CC3)cc(CN3CCNC[C@@H]3C)c2c1 [Example 118, (S)—N-Cyclopropyl-3-(2-(cyclopropylmethyl)-4-((2-methylpiperazin-1-yl)methyl)-1-oxo-1,2-dihydroisoquinolin-6-yl)-5-fluoro-4-methylbenzamide]",0.251
23,"Cc1c(F)cc(C(=O)NC2CC2)cc1-c1ccc2c(=O)n(CC3CC3)cc(CN3CCC[C@@H]3CN)c2c1 [Example 120, (R)-3-(4-((2-(Aminomethyl)pyrrolidin-1-yl)methyl)-2-(cyclopropylmethyl)-1-oxo-1,2-dihydroisoquinolin-6-yl)-N-cyclopropyl-5-fluoro-4-methylbenzamide]",0.794
24,"Cc1ccc(C(=O)NC2CC2)cc1-c1ccc2c(=O)n(CC3CC3)cc(C(=O)NC3CCNCC3)c2c1 [Example 41, 6-(5-(Cyclopropylcarbamoyl)-2-methylphenyl)-2-(cyclopropylmethyl)-1-oxo-N-(piperidin-4-yl)-1,2-dihydroisoquinoline-4-carboxamide]",1.58
25,"Cc1c(F)cc(C(=O)NC2CC2)cc1-c1ccc2c(=O)n(CC3CC3)cc(CN3CCN[C@@H](CO)C3)c2c1 [Example 85, (R)—N-Cyclopropyl-3-(2-(cyclopropylmethyl)-4-((3-(hydroxymethyl)piperazin-1-yl)methyl)-1-oxo-1,2-dihydroisoquinolin-6-yl)-5-fluoro-4-methylbenzamide]",0.0398
26,"Cc1ccc(C(=O)NC2CC2)cc1-c1ccc2c(=O)n(Cc3cccc(CN(C)C)c3)ccc2c1 [Example 15, N-Cyclopropyl-3-[2-(3-dimethylaminomethyl-benzyl)-1-oxo-1,2-dihydro-isoquinolin-6-yl]-4-methyl-benzamide]",3.16
